≈ marks a conversion by molar mass, not a printed value. Like-named read-outs stand apart in the source and are kept apart here.
Tests used:
[1] = test system: E. coli RNase P RNA, M1 RNA; assay: Inhibition of bacterial RNase P activity, IC50 determination (cleavage of pATSerUG by M1 RNA); assay type: biochemical; settings: NI = No inhibition
[2] = test system: E. coli RNase P RNA, M1 RNA; assay: Initial inhibition of RNase P activity (normalised cleavage of pATSerUG at maximum compound concentration); assay type: biochemical; settings: at 8 μM; normalised cleavage (cleavage with compound / without compound)
[3] = test system: Escherichia coli (ATCC25922); assay: MIC, broth microdilution (CLSI), Escherichia coli ATCC25922
[4] = test system: Staphylococcus aureus (ATCC25923); assay: MIC, broth microdilution (CLSI), Staphylococcus aureus ATCC25923; settings: ATCC25923, read-out: S. aureus ("Clinical") MIC
S. aureus ATCC 29213 = assay: MIC, S. aureus ATCC 29213 + 50% HS; assay type: cell-based; settings: Staphylococcus aureus, ATCC29213
S. pneumoniae ATCC 49619 = assay: MIC, S. pneumoniae ATCC 49619; assay type: cell-based; settings: Streptococcus pneumoniae, ATCC49619
N. gonorrhoeae 612501 = assay: MIC, N. gonorrhoeae 612501; assay type: cell-based; settings: Neisseria gonorrhoeae
K. pneumoniae ATCC 43816 = assay: MIC, K. pneumoniae ATCC 43816; assay type: cell-based; settings: Klebsiella pneumoniae, ATCC43816
[5] = test system: Pseudomonas aeruginosa (ATCC27853); assay: microbe, parasite or virus in culture; assay type: cell-based; settings: read-out: MIC P. aeruginosa ATCC 27853
[6] = test system: S. aureus MRSA ATCC 33591; assay: MIC, S. aureus MRSA ATCC 33591; assay type: cell-based; settings: Staphylococcus aureus; read-out: MIC S. aureus MRSA ATCC 33591
[7] = test system: Enterococcus faecalis (ATCC29212); assay: MIC, broth microdilution (CLSI), Enterococcus faecalis ATCC29212; assay type: cell-based; settings: read-out: MIC E. faecalis ATCC 29212
E. faecium ATCC 700221 = assay: MIC, E. faecium ATCC 700221; assay type: cell-based; settings: Enterococcus faecium, ATCC700221; read-out: MIC E. faecium ATCC 700221
E. coli JW5503 = assay: MIC, E. coli JW5503; assay type: cell-based; settings: Escherichia coli, JW5503, read-out: MIC E. coli JW5503
[8] = test system: P. aeruginosa NTUH-974 (MDR); assay: MIC, P. aeruginosa NTUH-974 (MDR); assay type: cell-based; settings: Pseudomonas aeruginosa, read-out: MIC P. aeruginosa NTUH-974 (MDR)
A. baumannii ATCC 17978 = assay: MIC, A. baumannii ATCC 17978; assay type: cell-based; settings: Acinetobacter baumannii, ATCC17978
H. influenzae ATCC 49247 = assay: MIC, H. influenzae ATCC 49247; assay type: cell-based; settings: Haemophilus influenzae, ATCC49247
[9] = test system: Staphylococcus aureus subsp. aureus (ATCC29213); assay: MIC, broth microdilution (CLSI), Staphylococcus aureus subsp. aureus ATCC29213; assay type: cell-based; settings: ATCC29213, Table 16, read-out: MIC S. aureus ATCC 29213
[10] = ATCC25922, read-out: E. coli MIC, Table 15, NI = No inhibition

SMILES | IC50 [1] | Normalised RNase P cleavage (fraction of control) [2] | MIC [3, 10] | MIC [4] | MIC (S. aureus ATCC 29213) | MIC (S. pneumoniae ATCC 49619) | MIC (N. gonorrhoeae 612501) | MIC (K. pneumoniae ATCC 43816) | MIC [5] | MIC [6] | MIC ([3]; ATCC25922, read-out: MIC E. coli ATCC 25922) | MIC [7] | MIC (E. faecium ATCC 700221) | MIC (E. coli JW5503) | MIC [8] | MIC (A. baumannii ATCC 17978) | MIC (H. influenzae ATCC 49247) | MIC [9]
C=CC(=O)N(CCCN(C)C)c1cc(C(F)(F)F)cc2c1Nc1ccccc1S2 [compound 39, N-(3-(dimethylamino)propyl)-N-(3-(trifluoromethyl)-10H-phenothiazin-1-yl)acrylamide] | 76 µM | 0.58 | > 100 µg/mL | 27 µg/mL (≈ 64.1 µM) | – | – | – | – | – | – | – | – | – | – | – | – | – | –
Nc1cc(C(F)(F)F)cc2c1N(CCCn1ccnc1)c1ccccc1S2 [compound 44, 10-(3-(1H-imidazol-1-yl)propyl)-3-(trifluoromethyl)-10H-phenothiazin-1-amine] | – | 1.06 | > 100 µg/mL | 2 µg/mL (≈ 5.12 µM) | > 128 µg/mL | 16 µg/mL (≈ 41 µM) | 2 µg/mL (≈ 5.12 µM) | > 128 µg/mL | > 128 µg/mL | 64 µg/mL (≈ 164 µM) | > 128 µg/mL | 16 µg/mL (≈ 41 µM) | 8 µg/mL (≈ 20.5 µM) | 8 µg/mL (≈ 20.5 µM) | > 128 µg/mL | > 128 µg/mL | 16 µg/mL (≈ 41 µM) | 4 µg/mL (≈ 10.2 µM)
C[C@@H](N)CC(=O)Nc1cc(C(F)(F)F)cc2c1Nc1ccccc1S2 [compound 67, (R)-3-amino-N-(3-(trifluoromethyl)-10H-phenothiazin-1-yl)butanamide] | > 100 µM | 0.19 | 13 µg/mL (≈ 35.4 µM) | 13 µg/mL (≈ 35.4 µM) | – | – | – | – | – | – | – | – | – | – | – | – | – | –
NCCC(=O)Nc1cc(C(F)(F)F)cc2c1Nc1ccccc1S2 [compound 30, 3-amino-N-(3-(trifluoromethyl)-10H-phenothiazin-1-yl)propanamide] | > 100 µM | 0.49 | 16 µg/mL (≈ 45.3 µM) | 8 µg/mL (≈ 22.6 µM) | – | – | – | – | – | – | – | – | – | – | – | – | – | –
CN(C)CCCN1c2ccccc2Sc2cc(C(F)(F)F)cc(N)c21 [compound 42, 10-(3-(dimethylamino)propyl)-3-(trifluoromethyl)-10H-phenothiazin-1-amine] | – | 1.02 | > 100 µg/mL | 47 µg/mL (≈ 128 µM) | – | – | – | – | – | – | – | – | – | – | – | – | – | –

— patent US11130741B2 (Bioimics AB, priority 2016, dated 2021)
